This is an account of results in patent US10119079B2, “Composition for removal of sulfur-containing compounds” (KURARAY CO., LTD., priority 2014, dated 2018).

In brackets after ≈: the same amount, converted by molar mass.

The subject of data set [1] is 6-week-old male CRj:CD(SD) rat. The data set is described as follows: Oral toxicity, 14-day repeated oral administration. The class given is in vivo. An excerpt:
A test substance which had been emulsified and dispersed in a 2%-gum arabic aqueous solution (containing 0.5%-Tween 80) was compulsorily administered in a 6-week-old male CRj:CD(SD) rat once a day for 14 days by using an oral sonde. A body weight variation and a general state during the administration period were observed. The rat was fasted for one day from the final administration date (drinking was freely taken), and on the day after final administration, taking a blood sample (for various blood tests) and mass measurement of major organs were performed. In addition, with respect to the liver, kidney, spleen, and testis, a histopathological examination (optical microscopic observation of HE-stained thin sliced tissue piece) was also carried out. A dose was set to 1,000, 250, 60, 15, and 0 mg/kg/day (administration liquid volume=1 mL/100 g-body weight/day), respectively, and five animals were used for each dosage.
(1) NL (GC purity: 99.7%)
(2) Glutaraldehyde (water content: 101 ppm, GC purity: 99.8%)
As a result of the test, with respect to NL, no fatal case was admitted even at the highest dose of 1,000 mg/kg/day.

Data set [2] has as its system Pseudokirchneriella subcapitata. The data set is described as follows: Alga growth inhibition test (OECD Test Guidelines No. 201). The class given is cell-based. Conditions: Selenastrum capricornutum; algae growth inhibition, 23° C., 72 hours; read-out: ErC50 (72 hr).
Procedure: An alga growth inhibition test of a test substance was carried out with reference to OECD Test Guidelines No. 201. That is, each of the following test substances was diluted with a test medium to a prescribed dosage. A liquid suspension of algae which had been grown to an exponential growth phase by preculture was added in an initial concentration of 1×10^4 cells/mL. The liquid suspension was subjected to shaking culture at 23° C. using a light irradiation-type bio shaker (BR-180LF, manufactured by Taitec Corporation), the number of algae cells at an elapsed time of 24, 48, and 72 hours, respectively after the start of the test was counted with a flow cytometer (Cell Lab Quant SC, manufactured by Beckman Coulter, Inc.), and a growth ratio at each test dosage was calculated while defining a growth ratio of the normal control as 100%. In addition, ErC50 was calculated according to an equation of an approximate curve of a graph plotting a growth inhibition ratio.
Algae: Pseudokirchneriella subcapitata
Dosage of Test Substance:
Each of the test substance (1) and the test substance (2): 100, 32, 10, 3.2, 1, 0.32 mg/L (common ratio: √10), and 0 mg/L (normal control)
Standard substance: 3.2, 1, 0.32 mg/L, and 0 mg/L (normal control)
Data set [3] can be described thus: Removal of H2S from crude oil in autoclave (Examples 2-3, Comparative Examples 1-2). The conditions noted are these: liquid added at 1% by mass, 80° C., 5 hours, 800 rpm; for H2S concentration of the gas phase part after the reaction: initial 2,580-2,800 ppm. As for the experimental part:
In a 100-mL autoclave equipped with a thermometer and a stirrer, 30 mL of a crude oil collected in Japan was charged and stirred until an H2S concentration of a gas phase part became constant. Thereafter, the concentration was measured with RX-517 (manufactured by Riken Kiki Co., Ltd.) and found to be 2,800 ppm. Subsequently, a composition liquid prepared by mixing PEG-200 and NL/MOL in a mass ratio of 1/1 was added in a concentration of 1% by mass relative to the crude oil. At this time, the addition amount of NL/MOL was 0.6 mmol, and the presence amount of H2S within the apparatus was 0.05 mmol. Thereafter, the inside of the apparatus was subjected to temperature rise to 80° C. while stirring at 800 rpm, and the contents were allowed to react with each other for 5 hours. After the reaction, the reaction mixture was cooled to room temperature, an H2S concentration of the gas phase part was measured and found to be 2 ppm, and a removal efficiency was 99.9%.
(§1) In a 100-mL autoclave equipped with a thermometer and a stirrer, 30 mL of a crude oil collected in Japan was charged and stirred until an H2S concentration of a gas phase part became constant. Thereafter, the concentration was measured with RX-517 (manufactured by Riken Kiki. Co., Ltd.) and found to be 2,580 ppm. Subsequently, a 50% by mass MGL aqueous solution was added in a concentration of 1% by mass relative to the crude oil. At this time, the addition amount of MGL was 0.9 mmol, and the presence amount of H2S within the apparatus was 0.05 mmol. Thereafter, the inside of the apparatus was subjected to temperature rise to 80° C. while stirring at 800 rpm, and the contents were allowed to react with each other for 5 hours. After the reaction, the reaction mixture was cooled to room temperature, an H2S concentration of the gas phase part was measured and found to be 70 ppm, and a removal efficiency was 97.3%.
as §1, with “Kiki” for “Kiki.”, “2,714” for “2,580”, “glutaraldehyde” for “MGL”, “1.0” for “0.9”, “100” for “70”, “96.3%.” for “97.3%.”
In a 100-mL autoclave equipped with a thermometer and a stirrer, 30 mL of a crude oil collected in Japan was charged and stirred until an H2S concentration of a gas phase part became constant. Thereafter, the concentration was measured with RX-517 (manufactured by Riken Kiki Co., Ltd.) and found to be 2,600 ppm. Subsequently, a 40% by mass glyoxal aqueous solution (manufactured by Wako Pure Chemical Industries, Ltd.) was added in a concentration of 1% by mass relative to the crude oil. At this time, the addition amount of glyoxal was 1.8 mmol, and the presence amount of H2S within the apparatus was 0.04 mmol. Thereafter, the inside of the apparatus was subjected to temperature rise to 80° C. while stirring at 800 rpm, and the contents were allowed to react with each other for 5 hours. After the reaction, the reaction mixture was cooled to room temperature, an H2S concentration of the gas phase part was measured and found to be 498 ppm, and a removal efficiency was 80.8%.

Data set [4] deals with sludge of the sewage treatment plant. The data set is described as follows: Bactericidal test on sludge (MTT method). It counts as cell-based. The conditions noted are these: sludge bacterial culture, about 25° C., 24 and 48 hours, MTT visual. The protocol: To a synthetic sewer water prepared by dissolving 5 g of each of glucose, peptone, and monopotassium dihydrogen phosphate in one liter of water and adjusting the pH at 7.0±1.0 with sodium hydroxide, a sludge of the sewage treatment plant located in the Mizushima district, Kurashiki-shi, Okayama Prefecture, Japan was added in an amount of 30 ppm as converted to dry mass, thereby preparing a bacterial culture. Meanwhile, a test substance was diluted with distilled water on a scale of […] in a final concentration of 1,000 to 0.004 ppm (common ratio=4) on a 24-well microplate, thereby preparing test solutions. Two wells were used for every concentration. As a comparison target, (distilled water+bacterial culture) was defined as “bacterial culture blank”, and distilled water alone was defined as “blank”.
The above-prepared bacterial culture and test solution were mixed in a volume ratio of 1/1, and the mixture was allowed to stand within a thermostatic tank at ambient temperature (about 25° C.) for 24 hours and 48 hours, respectively. A level of sludge influence at each concentration of the test substance was visually observed by means of the MTT method. An MTT reagent is converted by mitochondria as a microorganism in the sludge to form formazan, thereby developing a blue color.
(1) Mixture of NL and MOL (GC purity: 98.7%, NL/MOL=59/41) […]

Where [5] appears, read: rat, oral, once a day for 14 days.

For the compound `O=CCCCC=O` [Glutaraldehyde, glutaraldehyde], the “NOEL (maximum no-effect level)” value in data set [1] (setting [5]) came out at 5 mg/kg. The EC50 in data set [2] amounted to 9 µg/mL (≈ 89.9 µM). Moreover, in data set [3], the removal efficiency is given as 96.3% and the “H2S concentration of the gas phase part after the reaction” value (“H2S concentration of the gas phase part” for short) is given as 100 ppm. Also, the Sterilizing concentration in data set [4] amounted to 63 ppm.
In the case of `CC(CC=O)CC=O` [MGL, 3-methylglutaraldehyde], in data set [3], the removal efficiency is on record as 97.3% and the “H2S concentration of the gas phase part” value amounted to 70 ppm.
As to `O=CCCCCCCCC=O` [NL, 1,9-nonanedial], the “classification as deleterious substance” value in data set [1] (rat oral toxicity test) was “not corresponding to a “deleterious substance””. In data set [1] (setting [5]), the “NOEL (maximum no-effect level)” value is recorded as 250 mg/kg. Further, the fatal cases entry in data set [1] (rat, oral, once a day for 14 days, highest dose of 1,000 mg/kg/day) is “no fatal case”.
In the case of `O=CC=O` [glyoxal], in data set [3], the removal efficiency worked out at 80.8% and the “H2S concentration of the gas phase part” value came to 498 ppm.
